In this experiment the target is Beta-secretase 1 (Homo sapiens, UniProt P56817). Nature of the experiment: Inhibition of human brain BACE1 expressed in Escherichia coli BL21(DE) by TRF assay.

Experimental findings from ChEMBL document CHEMBL1154749, “P2'-truncated BACE-1 inhibitors with a novel hydroxethylene-like core” (Eur J Med Chem, 2010) are described below.

pIC50: −log10 of the molar value.

Sequence of Beta-secretase 1 (P56817 whole entry): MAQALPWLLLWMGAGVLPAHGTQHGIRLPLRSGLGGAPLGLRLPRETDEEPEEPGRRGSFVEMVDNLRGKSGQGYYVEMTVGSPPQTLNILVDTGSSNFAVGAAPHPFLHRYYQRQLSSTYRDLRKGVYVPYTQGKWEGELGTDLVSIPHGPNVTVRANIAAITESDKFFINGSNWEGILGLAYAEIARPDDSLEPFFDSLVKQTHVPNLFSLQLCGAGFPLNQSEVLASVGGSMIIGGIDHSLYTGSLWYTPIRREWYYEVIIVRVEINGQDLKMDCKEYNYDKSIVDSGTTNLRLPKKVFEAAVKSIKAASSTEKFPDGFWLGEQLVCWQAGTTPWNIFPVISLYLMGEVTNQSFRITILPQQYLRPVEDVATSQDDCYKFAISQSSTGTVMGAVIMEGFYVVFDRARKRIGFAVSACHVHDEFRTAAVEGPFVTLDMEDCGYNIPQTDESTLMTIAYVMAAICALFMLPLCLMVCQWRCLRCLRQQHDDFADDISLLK

Molecule `COc1ccc(COC[C@@H](C[C@H](O)[C@H](COc2cc(F)cc(F)c2)NC(=O)c2cc(C(=O)N[C@H](C)c3ccccc3)cc(N(C)S(C)(=O)=O)c2)OC)cc1` had a pIC50 of 6.85.
Regarding `COC[C@@H](C[C@H](O)[C@H](COc1cc(F)cc(F)c1)NC(=O)c1cc(C(=O)N[C@H](C)c2ccccc2)cc(N(C)S(C)(=O)=O)c1)OC`, the pIC50 was below 5.00.
`CO[C@@H](COC(C)C)C[C@H](O)[C@H](COc1cc(F)cc(F)c1)NC(=O)c1cc(C(=O)N[C@H](C)c2ccccc2)cc(N(C)S(C)(=O)=O)c1`: the pIC50 is 6.32.
For `CO[C@@H](COCc1ccccc1)C[C@H](O)[C@H](COc1cc(F)cc(F)c1)NC(=O)c1cc(C(=O)N[C@H](C)c2ccccc2)cc(N(C)S(C)(=O)=O)c1`, the pIC50 is 6.62.
Next, `CO[C@@H](COc1ccccc1)C[C@H](O)[C@H](COc1cc(F)cc(F)c1)NC(=O)c1cc(C(=O)N[C@H](C)c2ccccc2)cc(N(C)S(C)(=O)=O)c1`: 5.19; `CO[C@@H](CNCc1ccccc1)C[C@@H](O)[C@H](COc1cc(F)cc(F)c1)NC(=O)c1cc(C(=O)N[C@H](C)c2ccccc2)cc(N(C)S(C)(=O)=O)c1`: below 5.00.
For the molecule `COc1ccc(COC[C@@H](C[C@H](O)[C@H](COc2cc(F)cc(F)c2)NC(=O)c2cc(N(C)C[C@H]3C[C@@H]3C)nc(N(C)S(C)(=O)=O)c2)OC)cc1`, the negative-log IC50 (pIC50) was 5.74.
With `CCc1cn2c3c(ccc(C(=O)N[C@@H](COc4cc(F)cc(F)c4)[C@@H](O)C[C@H](COCc4ccc(OC)cc4)OC)c13)N(C)S(=O)(=O)CC2` the figure was 5.82; with `CO[C@@H](CO)C[C@H](O)[C@H](COc1cc(F)cc(F)c1)NC(=O)c1cc(C(=O)N[C@H](C)c2ccccc2)cc(N(C)S(C)(=O)=O)c1`, below 5.00.
With `CO[C@@H](COCC1CC1)C[C@H](O)[C@H](COc1cc(F)cc(F)c1)NC(=O)c1cc(C(=O)N[C@H](C)c2ccccc2)cc(N(C)S(C)(=O)=O)c1`, the pIC50 was 5.73.
Molecule `CO[C@@H](CNc1ccccc1)C[C@H](O)[C@H](COc1cc(F)cc(F)c1)NC(=O)c1cc(C(=O)N[C@H](C)c2ccccc2)cc(N(C)S(C)(=O)=O)c1` had a pIC50 of 5.82.
Molecule `C=CCOC[C@@H](C[C@H](O)[C@H](COc1cc(F)cc(F)c1)NC(=O)c1cc(C(=O)N[C@H](C)c2ccccc2)cc(N(C)S(C)(=O)=O)c1)OC` had a pIC50 of 5.69.
Consider `CO[C@@H](COCc1ccc(F)cc1)C[C@H](O)[C@H](COc1cc(F)cc(F)c1)NC(=O)c1cc(C(=O)N[C@H](C)c2ccccc2)cc(N(C)S(C)(=O)=O)c1`, for which the pIC50 was below 5.00.
`COc1cccc(COC[C@@H](C[C@H](O)[C@H](COc2cc(F)cc(F)c2)NC(=O)c2cc(C(=O)N[C@H](C)c3ccccc3)cc(N(C)S(C)(=O)=O)c2)OC)c1` showed a negative-log IC50 (pIC50) below 5.00.
With `CO[C@@H](CNc1ccc(F)cc1)C[C@H](O)[C@H](COc1cc(F)cc(F)c1)NC(=O)c1cc(C(=O)N[C@H](C)c2ccccc2)cc(N(C)S(C)(=O)=O)c1`, the negative-log IC50 (pIC50) was 5.82.
As to `CO[C@@H](CNCc1ccccc1)C[C@H](O)[C@H](COc1cc(F)cc(F)c1)NC(=O)c1cc(C(=O)N[C@H](C)c2ccccc2)cc(N(C)S(C)(=O)=O)c1`, the pIC50 is below 5.00.

For orientation: pIC50 means the IC50 on a negative log10 scale, so that one unit is a factor of ten. A low value points to a large IC50.
